Assays:
[1] = Therapeutic index, ratio of EC50 for cytotoxicity against human BJ cells to EC50 for antimalarial activity against Plasmodium falciparum 3D7; type: toxicity, cell-based; details: read-out: Ratio EC50
Plasmodium falciparum [2] = test: Antimalarial activity against chloroquine-sensitive Plasmodium falciparum 3D7 infected in o-positive erythrocyte assessed as reduction in parasite growth; type: functional, organism-based; details: 3D7, Erythrocyte
BJ = test: Cytotoxicity against human BJ cells; type: cell-based
Plasmodium falciparum [3] = test: Antimalarial activity against Plasmodium falciparum 3D7 infected in erythrocytes assessed as reduction in parasite growth incubated for 72 hrs by SYBR green dye based fluorescence assay; type: functional, organism-based; details: 3D7, Erythrocyte
HeLa = test: Cytotoxicity against human HeLa cells assessed as reduction in cell viability incubated for 48 hrs by CCK8 assay; type: cell-based
HepG2 = test: Cytotoxicity against human HepG2 cells assessed as reduction in cell viability incubated for 48 hrs by CCK8 assay; type: cell-based; details: HepG2, 48 h

Row | Structure (SMILES) | selectivity ratio [1] | EC50 (Plasmodium falciparum [2]) | EC50 (BJ) | EC50 (Plasmodium falciparum [3]) | EC50 (HeLa) | EC50 (HepG2)
1 | Oc1ccc(C2NCCc3c2[nH]c2ccc(Cl)cc32)cc1 (stereo unspecified) | 5 | 4.45 µM | > 24 µM | – | – | –
2 | Clc1ccc2[nH]c3c(c2c1)CCNC3c1ccc2ccccc2c1 (stereo unspecified) | 1 | 16.6 µM | 17.2 µM | – | – | –
3 | Clc1ccc2[nH]c3c(c2c1)CCNC3c1ccccc1Cl (stereo unspecified) | 12 | 1.94 µM | > 24 µM | – | – | –
4 | Oc1cccc(C2NCCc3c2[nH]c2ccc(Cl)cc32)c1 (stereo unspecified) | 3 | 7.53 µM | > 24 µM | – | – | –
5 | Clc1ccc2[nH]c3c(c2c1)CCNC3c1ccccc1 (stereo unspecified) | 14 | 1.67 µM | > 24 µM | – | – | –
6 | CC1NCCc2c1n(C)c1ccc(Cl)cc21 (stereo unspecified) | 1 | > 18 µM | > 24 µM | – | – | –
7 | Cc1ccccc1C1NCCc2c1[nH]c1ccc(Cl)cc21 (stereo unspecified) | 12 | 2.08 µM | > 24 µM | – | – | –
8 | CCn1c2c(c3cc(Cl)ccc31)CCNC2C (stereo unspecified) | 1 | > 18 µM | > 24 µM | – | – | –
9 | Clc1ccc(C2NCCc3c2[nH]c2ccc(Cl)cc32)cc1 (stereo unspecified) | 2 | 13.3 µM | 23 µM | – | – | –
10 | Clc1ccc2[nH]c3c(c2c1)CCNC3Cc1ccccc1 (stereo unspecified) | 2 | 10.9 µM | > 24 µM | – | – | –
11 | Oc1ccccc1C1NCCc2c1[nH]c1ccc(Cl)cc21 (stereo unspecified) | 4 | 4.35 µM | 15.7 µM | – | – | –
12 | Clc1ccc2[nH]c3c(c2c1)CCNC3c1cccc2ccccc12 (stereo unspecified) | 3 | 7.06 µM | > 24 µM | – | – | –
13 | Cc1ccc(C2NCCc3c2[nH]c2ccc(Cl)cc32)cc1 (stereo unspecified) | 1 | 17.9 µM | > 24 µM | – | – | –
14 | Clc1cccc(C2NCCc3c2[nH]c2ccc(Cl)cc32)c1 (stereo unspecified) | 9 | 2.53 µM | 23.6 µM | – | – | –
15 | CC1NCCc2c1[nH]c1ccc(Cl)cc21 (stereo unspecified) | – | – | – | 12.2 µM | 1100 µM | 160 µM
16 | Cc1cccc(C2NCCc3c2[nH]c2ccc(Cl)cc32)c1 (stereo unspecified) | 68 | 0.352 µM | > 24 µM | – | – | –
17 | Clc1ccc2[nH]c3c(c2c1)CCNC3C1CCCCC1 (stereo unspecified) | 2 | 12.1 µM | > 24 µM | – | – | –
